Assay [1] has as its target Beta-adrenergic receptor kinase 1 (Bos taurus, UniProt P21146, S670A). Nature of the assay: Inhibition of bovine GRK2 expressed in Sf9 insect cells assessed as decrease in phosphorylation of urea-washed bovine rod outer segments in presence of Gbetagamma subunits and [gamma-32P]-ATP after 5 to 60 mins by SDS-PAGE analysis.
The target in assay [2] is T1, G protein-coupled receptor kinase 3 (Bos taurus, UniProt P26818).
T1 sequence (P26818 whole entry): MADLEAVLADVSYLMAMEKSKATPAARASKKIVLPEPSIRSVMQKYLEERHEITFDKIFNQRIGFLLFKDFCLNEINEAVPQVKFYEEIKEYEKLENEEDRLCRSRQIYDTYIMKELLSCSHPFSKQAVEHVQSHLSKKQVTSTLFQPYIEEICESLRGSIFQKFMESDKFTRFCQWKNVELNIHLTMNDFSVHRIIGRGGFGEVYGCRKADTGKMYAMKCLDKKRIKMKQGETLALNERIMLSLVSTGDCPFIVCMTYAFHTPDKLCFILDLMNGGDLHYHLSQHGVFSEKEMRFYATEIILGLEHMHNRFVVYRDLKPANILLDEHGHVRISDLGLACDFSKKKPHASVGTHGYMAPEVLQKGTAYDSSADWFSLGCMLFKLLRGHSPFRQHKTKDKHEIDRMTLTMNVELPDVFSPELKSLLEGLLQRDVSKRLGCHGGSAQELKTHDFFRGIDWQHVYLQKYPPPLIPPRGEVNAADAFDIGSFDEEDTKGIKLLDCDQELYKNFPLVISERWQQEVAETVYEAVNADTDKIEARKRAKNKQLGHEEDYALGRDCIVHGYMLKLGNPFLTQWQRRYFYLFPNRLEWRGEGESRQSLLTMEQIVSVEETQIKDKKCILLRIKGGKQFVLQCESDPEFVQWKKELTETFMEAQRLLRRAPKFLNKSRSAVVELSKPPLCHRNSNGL
Nature of the assay: Inhibition of recombinant bovine GRK3 expressed in Sf9 insect cells assessed as decrease in phosphorylation of urea-washed bovine rod outer segments in presence of Gbetagamma subunits and [gamma-32P]-ATP after 5 to 60 mins by SDS-PAGE analysis.

Assay [3] has as its target G protein-coupled receptor kinase 5 (Homo sapiens, UniProt P34947). Nature of the assay: Inhibition of recombinant human GRK5 expressed in Sf9 insect cells assessed as decrease in phosphorylation of urea-washed bovine rod outer segments in presence of Gbetagamma subunits and [gamma-32P]-ATP after 5 to 60 mins by SDS-PAGE analysis.
Assay [4] in a line: Inhibition of PKA (unknown origin) using LRRASLG as substrate incubated for 30 mins by ADP-Glo assay. More on the design: species or system Homo sapiens. For orientation: ADP-Glo turns the ADP formed in a reaction into a luminescent signal.

Peptide text beside a SMILES is read from it.

Sequence of Beta-adrenergic receptor kinase 1 (P21146 whole entry S670A): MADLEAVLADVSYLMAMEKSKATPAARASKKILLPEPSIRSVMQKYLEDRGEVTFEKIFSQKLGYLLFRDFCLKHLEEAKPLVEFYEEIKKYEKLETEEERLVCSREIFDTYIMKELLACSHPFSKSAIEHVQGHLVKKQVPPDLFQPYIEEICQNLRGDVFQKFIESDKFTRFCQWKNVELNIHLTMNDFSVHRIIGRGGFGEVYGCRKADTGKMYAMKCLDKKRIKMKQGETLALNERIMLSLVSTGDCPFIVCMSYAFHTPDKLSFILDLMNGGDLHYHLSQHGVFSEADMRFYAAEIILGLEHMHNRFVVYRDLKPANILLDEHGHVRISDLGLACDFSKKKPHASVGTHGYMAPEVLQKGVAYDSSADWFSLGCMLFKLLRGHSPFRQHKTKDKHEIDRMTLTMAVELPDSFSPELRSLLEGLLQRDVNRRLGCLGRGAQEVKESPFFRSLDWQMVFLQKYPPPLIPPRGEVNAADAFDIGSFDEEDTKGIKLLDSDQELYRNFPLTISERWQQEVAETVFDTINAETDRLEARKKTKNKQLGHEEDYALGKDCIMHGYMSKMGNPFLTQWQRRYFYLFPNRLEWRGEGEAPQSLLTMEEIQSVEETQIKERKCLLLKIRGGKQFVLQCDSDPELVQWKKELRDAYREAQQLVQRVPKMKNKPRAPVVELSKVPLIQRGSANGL
Sequence of G protein-coupled receptor kinase 5 (P34947 whole entry): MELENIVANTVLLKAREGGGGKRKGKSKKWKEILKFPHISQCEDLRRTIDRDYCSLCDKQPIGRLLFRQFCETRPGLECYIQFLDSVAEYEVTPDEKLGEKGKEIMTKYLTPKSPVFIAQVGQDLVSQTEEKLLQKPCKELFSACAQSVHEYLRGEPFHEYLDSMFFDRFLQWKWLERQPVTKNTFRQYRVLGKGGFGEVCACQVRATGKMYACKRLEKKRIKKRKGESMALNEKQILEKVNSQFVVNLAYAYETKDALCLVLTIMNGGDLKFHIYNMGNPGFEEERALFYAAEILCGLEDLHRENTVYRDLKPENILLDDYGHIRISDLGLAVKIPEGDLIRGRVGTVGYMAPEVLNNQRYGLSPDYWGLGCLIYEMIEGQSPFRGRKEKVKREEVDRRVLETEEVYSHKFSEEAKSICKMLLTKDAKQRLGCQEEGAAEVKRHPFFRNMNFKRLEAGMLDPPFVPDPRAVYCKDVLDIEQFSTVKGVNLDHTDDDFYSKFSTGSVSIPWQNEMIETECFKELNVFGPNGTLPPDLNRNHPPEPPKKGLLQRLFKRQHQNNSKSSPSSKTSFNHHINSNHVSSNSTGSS

For `CC[C@H](C)[C@H](NC(=O)[C@H](C)NC(=O)[C@@H](NC(=O)[C@@H](N)CCCCN)[C@@H](C)O)C(=O)N[C@@H](C)C(=O)N[C@@H](CCCCN)C(=O)N[C@@H](Cc1ccccc1)C(=O)N[C@@H](CCC(=O)O)C(=O)N[C@@H](CCCNC(=N)N)C(=O)N[C@@H](CC(C)C)C(=O)N[C@@H](CCC(N)=O)C(=O)N[C@H](C(=O)N[C@H](C(=O)N[C@H](C(=O)N[C@@H](CC(N)=O)C(=O)N[C@@H](Cc1ccc(O)cc1)C(=O)N[C@@H](Cc1ccccc1)C(=O)N[C@H](C(=O)N[C@H](C(=O)N[C@@H](CO)C(=O)N[C@@H](CCC(=O)O)C(=O)O)[C@@H](C)O)[C@@H](C)CC)[C@@H](C)O)C(C)C)[C@@H](C)O` (H-KTAIAKFERLQTVTNYFITSE-OH), the IC50 – broadly, the point on the concentration scale where inhibition reaches its midpoint – in assay [1] worked out at 4.4 µM; in assay [2] it was 6.1 µM; in assay [3], 3.9 µM.

Consider `CC[C@H](C)[C@H](NC(=O)[C@H](C)NC(=O)[C@@H](NC(=O)[C@@H](N)CCC(=O)O)[C@@H](C)O)C(=O)N[C@@H](C)C(=O)N[C@@H](CCCCN)C(=O)N[C@@H](Cc1ccccc1)C(=O)N[C@@H](CCC(=O)O)C(=O)N[C@@H](CCCNC(=N)N)C(=O)N[C@@H](CC(C)C)C(=O)N[C@@H](CCC(N)=O)C(=O)N[C@H](C(=O)N[C@H](C(=O)N[C@H](C(=O)N[C@@H](CC(N)=O)C(=O)N[C@@H](Cc1ccc(O)cc1)C(=O)N[C@@H](Cc1ccccc1)C(=O)N[C@H](C(=O)N[C@H](C(=O)N[C@@H](CO)C(=O)N[C@@H](CCCCN)C(=O)O)[C@@H](C)O)[C@@H](C)CC)[C@@H](C)O)C(C)C)[C@@H](C)O` (H-ETAIAKFERLQTVTNYFITSK-OH), for which the half-inhibitory concentration (IC50) came out at 52.2 µM in assay [1], 22.6 µM in assay [2] and 7.4 µM in assay [3].

Regarding `CC1=C(C(=O)Nc2ccc3[nH]ncc3c2)C(c2ccc3ccccc3c2)CC(=O)N1` (stereo not given) [GSK-270822A], the half-maximal inhibitory concentration (IC50) in assay [4] was found to be 50.1 µM.

Compound `CC1=C(C(=O)Nc2ccc3[nH]ncc3c2)C(c2ccc(F)cc2)NC(=O)N1` (stereo not given) [GSK-180736A] showed an IC50 in assay [4] above 500 µM.

As for `CC[C@H](C)[C@H](NC(=O)[C@H](Cc1ccccc1)NC(=O)[C@H](Cc1ccc(O)cc1)NC(=O)[C@H](CC(N)=O)NC(=O)[C@@H](NC(=O)[C@@H](NC(=O)[C@@H](NC(=O)[C@H](CCC(N)=O)NC(=O)[C@H](CC(C)C)NC(=O)[C@H](CCCNC(=N)N)NC(=O)[C@H](CCC(=O)O)NC(=O)[C@H](Cc1ccccc1)NC(=O)[C@H](CCCCN)NC(=O)[C@H](C)N)[C@@H](C)O)C(C)C)[C@@H](C)O)C(=O)N[C@H](C(=O)N[C@@H](CO)C(=O)N[C@@H](CCC(=O)O)C(=O)O)[C@@H](C)O` (H-AKFERLQTVTNYFITSE-OH), the IC50 in assay [1] was 0.6 µM; in assay [2] it was 1.5 µM; in assay [3], 1.6 µM.

For the compound `CC[C@H](C)[C@H](NC(=O)[C@H](C)NC(=O)[C@@H](NC(=O)[C@@H](N)CCCCN)[C@@H](C)O)C(=O)N[C@@H](C)C(=O)N[C@@H](CCCCN)C(=O)N[C@@H](Cc1ccccc1)C(=O)N[C@@H](CCC(=O)O)C(=O)N[C@@H](CCCNC(=N)N)C(=O)N[C@@H](CC(C)C)C(=O)N[C@@H](CCC(N)=O)C(=O)N[C@H](C(=O)N[C@H](C(=O)N[C@H](C(=O)N[C@@H](CC(N)=O)C(=O)N[C@@H](Cc1ccc(O)cc1)C(=O)N[C@@H](Cc1ccccc1)C(=O)N[C@H](C(=O)N[C@H](C(=O)N[C@@H](CO)C(=O)N[C@@H](CCCCN)C(=O)O)[C@@H](C)O)[C@@H](C)CC)[C@@H](C)O)C(C)C)[C@@H](C)O` (H-KTAIAKFERLQTVTNYFITSK-OH), the figures for the IC50 in assay [1], in assay [2] and in assay [3] were 36.5 µM, 30.4 µM and 61.3 µM, respectively.

With `CC1=C(C(=O)Nc2ccc3[nH]ncc3c2)C(c2ccc(Cl)c(Cl)c2)CC(=O)N1` (stereo not given) [GSK-299115A], half-maximal inhibition in assay [4] (IC50) was put at 63.1 µM.
